# “And” between values parts separate entries of the source, which are not always exact repeats. Equal entries are not always repeated. Where two headings read alike, the source gives them in different places.
# Columns and labels:
# clinical [1] = settings: human, oral, 560 mg
# [2] = for DN*AUC0-24 / DN*AUClast / DN*Cmax / DN* AUC∞: dose normalized
# clinical [3] = settings: human, in vivo, oral, spread in brackets; for AUC(0-inf): AUCinf
# [4] = healthy subjects
# clinical [5] = settings: male, human, plasma, oral, 120 mg
# [6] = Ibrutinib in plasma, Day 1, 120 mg Ibrutinib alone, geom. mean
# [7] = Ibrutinib in plasma, Day 1, 120 mg Ibrutinib alone, mean
# [8] = Ibrutinib in plasma, Day 1, 120 mg Ibrutinib alone, median
# [9] = Ibrutinib in plasma, Day 1, 120 mg Ibrutinib alone, n=12, geom. mean
# [10] = Ibrutinib in plasma, Day 1, 120 mg Ibrutinib alone, n=12, mean
# [11] = Ibrutinib in plasma, Day 1, 120 mg Ibrutinib alone, not dose normalized, mean
# [12] = Ibrutinib in plasma, Day 7, 40 mg Ibrutinib + ketoconazole, geom. mean
# [13] = Ibrutinib in plasma, Day 7, 40 mg Ibrutinib + ketoconazole, mean
# [14] = Ibrutinib in plasma, Day 7, 40 mg Ibrutinib + ketoconazole, median
# [15] = 560 mg, Ibrutinib 560 mg alone, fasted, n=8
# [16] = 560 mg, Ibrutinib 560 mg alone, fed, n=8
# [17] = Ibrutinib 140 mg + grapefruit juice, fed, n=8
# [18] = PCI-45227 in plasma, Day 1, 120 mg Ibrutinib alone, geom. mean
# [19] = PCI-45227 in plasma, Day 1, 120 mg Ibrutinib alone, mean
# [20] = PCI-45227 in plasma, Day 1, 120 mg Ibrutinib alone, median
# [21] = PCI-45227 in plasma, Day 1, 120 mg Ibrutinib alone, not dose normalized, mean
# [22] = PCI-45227 in plasma, Day 7, 40 mg Ibrutinib + ketoconazole, geom. mean
# [23] = PCI-45227 in plasma, Day 7, 40 mg Ibrutinib + ketoconazole, mean
# [24] = PCI-45227 in plasma, Day 7, 40 mg Ibrutinib + ketoconazole, median
smiles,measurement,setting,value
"C=CC(=O)N1CCC[C@@H](n2nc(-c3ccc(Oc4ccccc4)cc3)c3c(N)ncnc32)C1 [Ibrutinib, 1-((R)-3-(4-amino-3-(4-phenoxyphenyl)-1H-pyrazolo[3,4-d]pyrimidin-1-yl)-piperidin-1-yl)prop-2-en-1-one]",AUC(0-t),clinical [1]; blood,259 ng·h/mL
same,Cmax,clinical [1]; blood,42 ng/mL
same,AUC(0-inf),clinical [1]; in vivo,397 ng·h/mL
same,DN*AUC0-24,[2]; [6],18.7 ng·h/mL
same,DN*AUClast,[2]; [6],20.4 ng·h/mL
same,DN*Cmax,[2]; [6],3.33 ng/mL
same,DN*AUC0-24,[2]; [7],21.3 ng·h/mL
same,DN*AUClast,[2]; [7],23.8 ng·h/mL
same,DN*Cmax,[2]; [7],3.92 ng/mL
same,DN*AUC0-24,[2]; [8],18.5 ng·h/mL
same,DN*AUClast,[2]; [8],19.2 ng·h/mL
same,DN*Cmax,[2]; [8],3.57 ng/mL
same,DN* AUC∞,[2]; [9],23.7 ng·h/mL
same,DN* AUC∞,[2]; [10],28.1 ng·h/mL
same,tlast,[2]; [6],30.93 h
same,tlast,[2]; [7],34.00 h
same,tlast,[2]; [8],24.01 h
same,AUMC∞,[2]; [9],576 h · h · ng/mL
same,MRT,[2]; [9],8.11 h
same,AUMC∞,[2]; [10],857 h · h · ng/mL
same,MRT,[2]; [10],8.93 h
same,AUMC∞,"[2]; Ibrutinib in plasma, Day 1, 120 mg Ibrutinib alone, n=12, median",693 h · h · ng/mL
same,AUC0-24,[2]; [11],63.8 ng·h/mL
same,Cmax,[2]; [11],11.8 ng/mL
same,AUC0-24,[2]; [12],464 ng·h/mL
same,AUClast,[2]; [12],488 ng·h/mL
same,AUC∞,[2]; [12],491 ng·h/mL
same,AUMC∞,[2]; [12],3235 h · h · ng/mL
same,Cmax,[2]; [12],95.2 ng/mL
same,MRT,[2]; [12],6.6 h
same,tlast,[2]; [12],40.51 h
same,AUC0-24,[2]; [13],510 ng·h/mL
same,AUClast,[2]; [13],533 ng·h/mL
same,AUC∞,[2]; [13],536 ng·h/mL
same,AUMC∞,[2]; [13],3504 h · h · ng/mL
same,Cmax,[2]; [13],108 ng/mL
same,MRT,[2]; [13],6.8 h
same,tlast,[2]; [13],42.68 h
same,AUClast,[2]; [14],559 ng·h/mL
same,AUMC∞,[2]; [14],3635 h · h · ng/mL
same,tlast,[2]; [14],48.00 h
same,Ibrutinib systemic exposure when dosed concomitantly with ketoconazole,[2]; healthy subjects,significantly affected
same,AUC(0-t),"clinical [3]; 560 mg, AUC0-24 h, Ibrutinib 560 mg alone, fasted, n=8",229 ng·h/mL
same,AUC(0-t),"clinical [3]; 560 mg, AUC0-24 h, Ibrutinib 560 mg alone, fed, n=7",544 ng·h/mL
same,AUC(0-inf),clinical [3]; [15],368 ng·h/mL
same,AUC(0-inf),clinical [3]; [16],659 ng·h/mL
same,AUC(0-t),"clinical [3]; 560 mg, AUClast, Ibrutinib 560 mg alone, fasted, n=8",289 ng·h/mL
same,AUC(0-t),"clinical [3]; 560 mg, AUClast, Ibrutinib 560 mg alone, fed, n=8",606 ng·h/mL
same,Cmax,clinical [3]; [15],245 ng/mL
same,Cmax,clinical [3]; [16],128 ng/mL
same,AUC(0-t),"clinical [3]; AUC0-24 h, Ibrutinib 140 mg + grapefruit juice, fed, n=7",339 ng·h/mL
same,AUC(0-inf),clinical [3]; [17],334 ng·h/mL
same,AUC(0-t),"clinical [3]; AUClast, Ibrutinib 140 mg + grapefruit juice, fed, n=8",325 ng·h/mL
same,Cmax,clinical [3]; [17],125 ng/mL
same,Ibrutinib systemic exposure when dosed concomitantly with rifampin,[4],significantly affected
same,AUC(0-inf),clinical [5],22.4 ng·h/mL
same,MRT,clinical [5],9.13 h
Nc1ncnc2c1c(-c1ccc(Oc3ccccc3)cc1)nn2[C@@H]1CCCN(C(=O)C(O)CO)C1 (some centres unmarked) [PCI-45227],DN* AUC∞,[2]; [18],98.2 ng·h/mL
same,DN*AUC0-24,[2]; [18],76.6 ng·h/mL
same,DN*AUClast,[2]; [18],96.4 ng·h/mL
same,DN*Cmax,[2]; [18],8.81 ng/mL
same,DN* AUC∞,[2]; [19],103 ng·h/mL
same,DN*AUC0-24,[2]; [19],82.2 ng·h/mL
same,DN*AUClast,[2]; [19],101 ng·h/mL
same,DN*Cmax,[2]; [19],9.70 ng/mL
same,DN* AUC∞,[2]; [20],101 ng·h/mL
same,DN*AUC0-24,[2]; [20],81.3 ng·h/mL
same,DN*AUClast,[2]; [20],100 ng·h/mL
same,DN*Cmax,[2]; [20],9.45 ng/mL
same,AUMC∞,[2]; [18],4122 h · h · ng/mL
same,CL/F,[2]; [18],407 L/h
same,MRT,[2]; [18],14.0 h
same,T½ term,[2]; [18],11.2 h
same,tlast,[2]; [18],65.80 h
same,tmax,[2]; [18],2.25 h
same,λz,[2]; [18],0.0619 h⁻¹
same,AUMC∞,[2]; [19],4297 h · h · ng/mL
same,CL/F,[2]; [19],428 L/h
same,MRT,[2]; [19],14.3 h
same,T½ term,[2]; [19],11.41 h
same,tlast,[2]; [19],66.7 h and 66.67 h
same,tmax,[2]; [19],2.42 h
same,λz,[2]; [19],0.0630 h⁻¹
same,AUMC∞,[2]; [20],3979 h · h · ng/mL
same,CL/F,[2]; [20],395 L/h
same,MRT,[2]; [20],13.6 h
same,T½ term,[2]; [20],10.74 h
same,tlast,[2]; [20],72.00 h
same,tmax,[2]; [20],2.00 h
same,λz,[2]; [20],0.0645 h⁻¹
same,AUC0-24,[2]; [21],247 ng·h/mL
same,Cmax,[2]; [21],29.1 ng/mL
same,AUC0-24,[2]; [22],53.4 ng·h/mL
same,AUClast,[2]; [22],82.7 ng·h/mL
same,AUC∞,[2]; [22],89.4 ng·h/mL
same,AUMC∞,[2]; [22],2216 h · h · ng/mL
same,CL/F,[2]; [22],448 L/h
same,Cmax,[2]; [22],3.63 ng/mL
same,MRT,[2]; [22],24.8 h
same,T½ term,[2]; [22],17.49 h
same,tlast,[2]; [22],67.30 h
same,tmax,[2]; [22],3.77 h
same,λz,[2]; [22],0.0396 h⁻¹
same,AUC0-24,[2]; [23],54.5 ng·h/mL
same,AUClast,[2]; [23],85.2 ng·h/mL
same,AUC∞,[2]; [23],92.2 ng·h/mL
same,AUMC∞,[2]; [23],2416 h · h · ng/mL
same,CL/F,[2]; [23],461 L/h
same,Cmax,[2]; [23],3.71 ng/mL
same,MRT,[2]; [23],25.4 h
same,T½ term,[2]; [23],17.99 h
same,tlast,[2]; [23],68.01 h
same,tmax,[2]; [23],3.95 h
same,λz,[2]; [23],0.0407 h⁻¹
same,AUC0-24,[2]; [24],53.8 ng·h/mL
same,AUClast,[2]; [24],82.7 ng·h/mL
same,AUC∞,[2]; [24],89.6 ng·h/mL
same,AUMC∞,[2]; [24],2177 h · h · ng/mL
same,CL/F,[2]; [24],447 L/h
same,Cmax,[2]; [24],3.74 ng/mL
same,MRT,[2]; [24],24.8 h
same,T½ term,[2]; [24],16.61 h
same,tlast,[2]; [24],72.00 h
same,tmax,[2]; [24],4.00 h
same,λz,[2]; [24],0.0417 h⁻¹

# — patent US20160022683A1, “COMBINATIONS OF BRUTON'S TYROSINE KINASE INHIBITORS AND CYP3A4 INHIBITORS” (PHARMACYCLICS LLC, priority 2013, published 2016)
